Assay in all cases: NCI-60 cell line screen, 48 h
Test [1] deals with A498.
Test [2] deals with CCRF-CEM.
The test system of test [3] is COLO 205.
Test [4] concerns EKVX.
Test [5] deals with HCT-15.
Test [6] has as its system HOP-62.
In test [7] the test system is Hs-578T.
In test [8] the test system is MDA-MB-435.
For test [9], the system named is MOLT-4.
The test system of test [10] is NCI-H226.
Test [11] deals with NCI-H23.
The subject of test [12] is NCI/ADR-RES.
Test [13] concerns RPMI-8226.
In test [14] the test system is SK-MEL-2.
In test [15] the test system is SK-OV-3.
In test [16] the test system is SN12C.
Test [17] has as its system SR.
For test [18], the system named is SW-620.
For test [19], the system named is UACC-257.

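How tested: cells in 96-well plates exposed to compound for 48 hours at five concentrations. GI50 = concentration required for 50% inhibition of growth.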 Active and inactive are the calls of the source. Cut-off read from the data, not from the text of the source: active = GI50 up to about 1.1 µM and inactive = higher.

For the compound `Cc1ccc2nc(CC(=O)c3ccc4ccccc4c3)c(O)nc2c1`, the GI50 in test [1] was > 100 µM (inactive); in test [2] it was > 100 µM (inactive); in test [3], > 100 µM (inactive); in test [4], > 100 µM (inactive); in test [5], above 100 µM; in test [6], > 100 µM (inactive). The GI50 in test [7], in [8], in [9], in test [10], in test [11] and in test [12] was > 100 µM (inactive) throughout. Moreover, the GI50 in test [13], in [14], in [15], in [16], in test [17] and in test [18] was > 100 µM (inactive) throughout. Moreover, the GI50 in test [19] was > 100 µM (inactive).
On to `c1ccc(C(=NNc2nc3ccccc3[nH]2)c2ccccn2)nc1`, for which the GI50 was 0.36 µM (active) in test [1]; 0.0313 µM (active) in [2]; 0.0257 µM (active) in test [3]; 0.929 µM (active) in [4]; 0.115 µM in [5]; 0.207 µM (active) in test [6]. Besides, the GI50 in [7] was 7.53 µM (inactive); in [8], 0.348 µM (active); in test [9] it was 0.015 µM (active); in test [10] it was 0.0625 µM (active); in [11], 0.24 µM (active); in [12], 0.115 µM (active). The GI50 was 0.129 µM (active) in [13]; 12.9 µM (inactive) in test [14]; 0.103 µM (active) in [15]; 0.128 µM (active) in test [16]; 0.0371 µM (active) in test [17]; 0.0698 µM (active) in [18]. Moreover, in [19], the GI50 was 0.145 µM (active).
For `COc1cc(CSc2ccc(O)cc2)cc(O)c1O`, the GI50 in [1] is > 100 µM (inactive); in [2], 8.36 µM (inactive); in test [3] it was 23.3 µM (inactive); in [4], 85.7 µM (inactive); in [5], 18.7 µM; in test [6], 44.7 µM (inactive). Besides, the GI50 in [7] is 42.1 µM (inactive); in test [8], 17.2 µM (inactive); in test [9], 25.3 µM (inactive); in [10] it was 23.4 µM (inactive); in test [11], 41.8 µM (inactive); in test [12], 23.8 µM (inactive). Also, the GI50 in test [13] was 15.7 µM (inactive); in [14] it was 24.5 µM (inactive); in test [15], > 10 µM (inactive); in test [16], 25.2 µM (inactive); in test [17], 21.7 µM (inactive); in [18], 38.5 µM (inactive). Besides, the GI50 in test [19] was 34 µM (inactive).
Regarding `CCOC(=O)NC(N(C)C(C(C)C)P(=O)(OCC)OCC)(C(F)(F)F)C(F)(F)F` (stereo not given), the GI50 was > 100 µM (inactive) in [1]; > 100 µM (inactive) in test [2]; > 100 µM (inactive) in test [3]; > 100 µM (inactive) in test [4]; above 100 µM in test [5]; > 100 µM (inactive) in [6]. Moreover, the GI50 in test [7], in test [8], in test [9], in test [10], in [11] and in test [12] was > 100 µM (inactive) each time. The GI50 in [13] was > 100 µM (inactive); in test [14], > 100 µM (inactive); in [16] it was > 100 µM (inactive); in test [17], > 100 µM (inactive); in [18], 4.68 µM (inactive); in [19] it was > 100 µM (inactive).
